Results on 18 compounds are retold here after patent publication US20230210851A1, “SPIRO-LACTAM COMPOUNDS AND METHODS OF TREATING VIRAL INFECTIONS USING THE SAME” (Aptinyx Inc., priority 2020, published 2023).

The target in the assay is T1, 3CL Protease, MBP-tagged (SARS-CoV-2) (Severe acute respiratory syndrome coronavirus 2, UniProt P0DTD1).
T1 construct: The assay was performed using 3CL Protease, MBP-tagged (SARS-CoV-2) Assay kit; MBP; purchased BPS Biosciences 79955-2
Nature of the assay: biochemical. Particulars: for IC50: compound study, 10 point dose response curve; for activity at tested concentrations: tested concentrations 0.002-30 µM.

Where [1] appears, read: 30 µM concentration, approximate values, read-out: inhibition at 30 µM concentration.
[2] abbreviates: COVID-19 3CL Protease inhibitory activity at 30 µM compound, read-out: % Inhibition at 30 µM.
The mark [3] stands for this setting: read-out: % Inhibition at 30 µM, COVID-19 3CL Protease inhibitory activity at 30 µM compound.
Where [4] appears, read: COVID-19 3CL Protease inhibitory activity at 30 µM compound.
Where [5] appears, read: COVID-19 3CL Protease inhibitory activity at 30 µM compound, 30 µM.

SMILES strings stand for the structures. Read-outs that look alike come from different tables or passages of the source.

A word on the IC50: it is the point on the concentration scale where inhibition reaches its midpoint. A high value points to a need for much substance. `O=C(CCl)N1CCN(Cc2ccc(F)cc2)C2(CCNC2=O)C1` (single isomer, unassigned) [ET-108, 9-(2-chloroacetyl)-6-(4-fluorobenzyl)-2,6,9-triazaspiro[4.5]decan-1-one] had an IC50 of 6 µM. In addition, the inhibition at 30 µM under setting [1] is roughly 84%. Moreover, the inhibition at 30 µM under setting [2] is 84%.

For `CC(=O)N1CCN(Cc2ccccc2)[C@]2(CCNC2=O)C1` [ES-319], the “activity at tested concentrations” value is “inactive”. The inhibition at 30 µM under setting [3] came to 0%.

As for `CC(=O)N1CCN(Cc2ccccc2)[C@@]2(CCNC2=O)C1` [ES-320], the “activity at tested concentrations” value is “inactive”. Also, the inhibition at 30 µM under setting [3] is 0%.

`O=C(CCl)N1CCN(Cc2ccccc2)[C@@]2(CCNC2=O)C1` [ET-103, 6-benzyl-9-(2-chloroacetyl)-2,6,9-triazaspiro[4.5]decan-1-one]: the inhibition at 30 µM is roughly 44% under setting [1] and 44% under setting [2].

In turn, `O=C(CCl)N1CCN(Cc2ccccc2)[C@]2(CCNC2=O)C1` [ET-104, 6-benzyl-9-(2-chloroacetyl)-2,6,9-triazaspiro[4.5]decan-1-one] registered an IC50 of 11.5 µM. Further, the inhibition at 30 µM under setting [1] is roughly 92%. In addition, the inhibition at 30 µM under setting [2] amounted to 92%.

`O=C(CCl)N1CCN(Cc2ccc(F)cc2)C2(CCNC2=O)C1` (stereo not shown) [ET-107, 9-(2-chloroacetyl)-6-(4-fluorobenzyl)-2,6,9-triazaspiro[4.5]decan-1-one]: the inhibition at 30 µM under setting [2] was determined as 38%.

With `O=C(CI)N1CCN(Cc2ccccc2)C2(CCNC2=O)C1` (stereo not shown) [ET-109, 6-benzyl-9-(2-iodoacetyl)-2,6,9-triazaspiro[4.5]decan-1-one], the inhibition at 30 µM under setting [3] worked out at 36%.

As to `O=C(CI)N1CCN(Cc2ccccc2)C2(CCNC2=O)C1` (stereo not shown) [ET-110, 6-benzyl-9-(2-iodoacetyl)-2,6,9-triazaspiro[4.5]decan-1-one], the inhibition at 30 µM (read-out: inhibition at 30 µM concentration, 30 µM concentration, approximate values) is roughly 47%.

On to `CC(Cl)C(=O)N1CCN(Cc2ccccc2)C2(CCNC2=O)C1` (stereo not shown) [ET-111, 6-benzyl-9-(2-chloropropanoyl)-2,6,9-triazaspiro[4.5]decan-1-one], for which the inhibition at 30 µM under setting [3] worked out at 0%.

Usually % Inhibition stands for the relative decrease from the control value, in per cent. On to `CC(Cl)C(=O)N1CCN(Cc2ccccc2)C2(CCNC2=O)C1` (stereo not shown) [ET-112, 6-benzyl-9-(2-chloropropanoyl)-2,6,9-triazaspiro[4.5]decan-1-one], for which the “% Inhibition at 30 µM” value under setting [4] is recorded as 0%.

As for `CC(Cl)C(=O)N1CCN(Cc2ccccc2)C2(CCNC2=O)C1` (stereo not shown) [ET-113, 6-benzyl-9-(2-chloropropanoyl)-2,6,9-triazaspiro[4.5]decan-1-one], under setting [4], the “% Inhibition at 30 µM” value stood at 0%.

Consider `CC(Cl)C(=O)N1CCN(Cc2ccccc2)C2(CCNC2=O)C1` (stereo not shown) [ET-114, 6-benzyl-9-(2-chloropropanoyl)-2,6,9-triazaspiro[4.5]decan-1-one], for which the “% Inhibition at 30 µM” value under setting [4] was determined as 0%.

Regarding `CCC(CC)OC(=O)C(C)NP(=O)(OCC(=O)N1CCN(Cc2ccccc2)C2(CCNC2=O)C1)Oc1ccccc1` (stereo not shown) [ET-115, Pentan-3-yl ((2-(6-benzyl-1-oxo-2,6,9-triazaspiro[4.5]decan-9-yl)-2-oxoethoxy)(phenoxy)phosphoryl)alaninate], the “% Inhibition at 30 µM” value under setting [5] was found to be 31%.

Regarding `CCC(CC)OC(=O)C(C)NP(=O)(OCC(=O)N1CCN(Cc2ccccc2)C2(CCNC2=O)C1)Oc1ccccc1` (stereo not shown) [ET-116, Pentan-3-yl ((2-(6-benzyl-1-oxo-2,6,9-triazaspiro[4.5]decan-9-yl)-2-oxoethoxy)(phenoxy)phosphoryl)alaninate], the “% Inhibition at 30 µM” value under setting [5] was determined as 28%.

As to `CCC(CC)OC(=O)C(C)NP(=O)(OCC(=O)N1CCN(Cc2ccccc2)C2(CCNC2=O)C1)Oc1ccccc1` (stereo not shown) [ET-117, Pentan-3-yl ((2-(6-benzyl-1-oxo-2,6,9-triazaspiro[4.5]decan-9-yl)-2-oxoethoxy)(phenoxy)phosphoryl)alaninate], the “% Inhibition at 30 µM” value under setting [5] is recorded as 15%.

Consider `CCC(CC)OC(=O)C(C)NP(=O)(OCC(=O)N1CCN(Cc2ccccc2)C2(CCNC2=O)C1)Oc1ccccc1` (stereo not shown) [ET-118, Pentan-3-yl ((2-(6-benzyl-1-oxo-2,6,9-triazaspiro[4.5]decan-9-yl)-2-oxoethoxy)(phenoxy)phosphoryl)alaninate], for which the “% Inhibition at 30 µM” value under setting [5] was 34%.

Consider `CCC(CC)OC(=O)[C@H](C)NP(=O)(OCC(=O)N1CCN(Cc2ccccc2)C2(CCNC2=O)C1)Oc1ccccc1` (stereo partly shown) [ET-119, Pentan-3-yl ((2-(6-benzyl-1-oxo-2,6,9-triazaspiro[4.5]decan-9-yl)-2-oxoethoxy)(phenoxy)phosphoryl)alaninate], for which, under setting [3], the inhibition at 30 µM worked out at 34%.

On to `CCC(CC)OC(=O)[C@H](C)NP(=O)(OCC(=O)N1CCN(Cc2ccccc2)C2(CCNC2=O)C1)Oc1ccccc1` (stereo partly shown) [ET-120, Pentan-3-yl ((2-(6-benzyl-1-oxo-2,6,9-triazaspiro[4.5]decan-9-yl)-2-oxoethoxy)(phenoxy)phosphoryl)alaninate], for which, under setting [5], the “% Inhibition at 30 µM” value was found to be 30%.
